Measurements taken from US20230021483A1, “[…] […] METHOD AND CLASSIFICATION OF PHARMACEUTICAL COMPONENTS BY USING TRANSCRIPTOMES” (National Institutes of Biomedical Innovation, Health and …, priority 2016, published 2023).

Tested on: preferentially upregulated genes in LV, SP, LN
Assay: Z-score-based differential gene expression analysis (adjuvant group- or adjuvant-associated genes, 40 module mapping, TargetMine annotation)
Assay type: in vivo, C57BL/6 mice
Conditions: LV
Summary of the method: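 Per-sample fold-change values converted to gene-wise z-scores within each organ's data set, then triplicate z-scores summed per adjuvant. Genes with summed score >3 taken as preferentially expressed; gene groups defined by combined per-adjuvant z-score thresholds (z>1 to z>3) specific to each organ.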

K3: B class CpG ODN (ATCGACTCTCGAGCGTTCTC), TLR9 ligand (chemistry not given here)
−0.1: Tdrd7 1426716_at (Group G1, Modules 20) (IP, sample x2)
−0.8: Adar 1434268_at (Group G1, Modules 20) (IP, sample x2)
−0.5: Tor1aip2 1435526_at (Group G1, Modules 20) (ID, sample x2) | Trim12a 1437432_a_at (Group G1, Modules 20) (ID, sample x2) | Adar 1425405_a_at (Group G1, Modules 20) (IP, sample x1) | Ddx58 1436562_at (Group G1, Modules 20) (IP, sample x1) | Gm9706///Isg15 1431591_s_at (Group G1, Modules 20) (IP, sample x1) | Ifit1 1450783_at (Group G1, Modules 20) (IP, sample x1) | Ifit3 1449025_at (Group G1, Modules 20) (IP, sample x1) | Irf7 1417244_a_at (Group G1, Modules 20) (IP, sample x1) | Irgm1 1418825_at (Group G1, Modules 20) (IP, sample x1) | Mndal 1426906_at (Group G1, Modules 20) (IP, sample x1) | Pml 1448757_at (Group G1, Modules 20) (IP, sample x1) | Pml 1456103_at (Group G1, Modules 20) (IP, sample x1) | Rnf213 1455500_at (Group G1, Modules 20) (IP, sample x1) | Rsad2 1436058_at (Group G1, Modules 20) (IP, sample x1) | Shisa5 1437503_a_at (Group G1, Modules 20) (IP, sample x1) | Stat1 1450034_at (Group G1, Modules 20) (IP, sample x1) | Tor1aip2 1418115_s_at (Group G1, Modules 20) (IP, sample x1) | Trim12a 1437432_a_at (Group G1, Modules 20) (IP, sample x1) | Uba7 1426970_a_at (Group G1, Modules 20) (IP, sample x1) | Adar 1425405_a_at (Group G1, Modules 20) (IP, sample x2) | Gm9706///Isg15 1431591_s_at (Group G1, Modules 20) (IP, sample x2) | Ifit1 1450783_at (Group G1, Modules 20) (IP, sample x2) | Ifit3 1449025_at (Group G1, Modules 20) (IP, sample x2) | Irgm1 1418825_at (Group G1, Modules 20) (IP, sample x2) | Rsad2 1436058_at (Group G1, Modules 20) (IP, sample x2) | Shisa5 1423986_a_at (Group G1, Modules 20) (IP, sample x2) | Stat1 1450033_a_at (Group G1, Modules 20) (IP, sample x2) | Trim12a 1437432_a_at (Group G1, Modules 20) (IP, sample x2)
−0.4: Ddx58 1456890_at (Group G1, Modules 20) (IP, sample x1) | Ifih1 1426276_at (Group G1, Modules 20) (IP, sample x1) | Tor1aip2 1418116_at (Group G1, Modules 20) (IP, sample x1) | G3bp2 1421323_a_at (Group G1, Modules 20) (IP, sample x2) | Mndal 1426906_at (Group G1, Modules 20) (IP, sample x2) | Rnf213 1455500_at (Group G1, Modules 20) (IP, sample x2) | Shisa5 1437503_a_at (Group G1, Modules 20) (IP, sample x2)
−0.3: Uba7 1426970_a_at (Group G1, Modules 20) (ID, sample x2) | Tor1aip2 1435526_at (Group G1, Modules 20) (IP, sample x1) | Ddx58 1456890_at (Group G1, Modules 20) (IP, sample x2) | Ifih1 1426276_at (Group G1, Modules 20) (IP, sample x2) | Pml 1448757_at (Group G1, Modules 20) (IP, sample x2) | Pml 1456103_at (Group G1, Modules 20) (IP, sample x2)
−0.7: Eif2ak2 1422005_at (Group G1, Modules 20) (IP, sample x2)
−0.2: H2-T10///H2-T22///H2-T9 1449875_s_at (Group G1, Modules 20) (IP, sample x1) | Tdrd7 1426716_at (Group G1, Modules 20) (IP, sample x1) | Ddx58 1436562_at (Group G1, Modules 20) (IP, sample x2) | H2-T10///H2-T22///H2-T9 1449875_s_at (Group G1, Modules 20) (IP, sample x2) | Tor1aip2 1418115_s_at (Group G1, Modules 20) (IP, sample x2) | Tor1aip2 1435526_at (Group G1, Modules 20) (IP, sample x2)
−0: Tor1aip2 1418116_at (Group G1, Modules 20) (IP, sample x2)
−0.6: Adar 1434268_at (Group G1, Modules 20) (IP, sample x1) | Eif2ak2 1422005_at (Group G1, Modules 20) (IP, sample x1) | G3bp2 1421323_a_at (Group G1, Modules 20) (IP, sample x1) | Shisa5 1423986_a_at (Group G1, Modules 20) (IP, sample x1) | Stat1 1450033_a_at (Group G1, Modules 20) (IP, sample x1) | Irf7 1417244_a_at (Group G1, Modules 20) (IP, sample x2) | Stat1 1450034_at (Group G1, Modules 20) (IP, sample x2)
